# Patent US20210101879A1, “AMYLOID PROTEIN-SELECTIVE BACE INHIBITORS (ASBIs) FOR ALZHEIMER?S DISEASE” (The Regents of the University of California, priority 2018, published 2021)
# Where “and” joins values, the source holds several entries; their conditions need not be identical. Equal values may be shown once. Read-outs that look alike come from different tables or passages of the source.
# Columns and labels:
# [1] = pharmacokinetic study in rats; assay type: in vivo; conditions: wildtype Sprague-Dawley rats, 30 mg/kg orally, at 2 hours
# [2] = PAMPA; assay type: in vitro ADME
# [3] = molecular target: Cathepsin D (CatD) (Homo sapiens (Human), UniProt P07339); experiment: Cathepsin-D assay; assay type: biochemical
# Protocol: For the assay, 4 μL of assay buffer was added to each well, followed by 2 μL of Cathepsin D (CatD) diluted in assay buffer to 5 ng/μL. Then, 2 μL of inhibitor, prepared to get a testing concentration of 20 μM, were added to appropriated wells and incubated for 30 minutes at room temperature. Afterwards, 2 μL of CatD substrate, diluted to 50 μM in assay buffer, were added to each well, after which the signal generated was read every 30 minutes at 25° C. for 1 hr. Signals shown in FIG. 6 are representative of readings at 1 hr.
# [4] = tested on: CHO-7W cells (stably transfected with human amyloid precursor protein wildtype); experiment: CHO-7W cell assay (AlphaLISA of media); assay type: cell-based, Chinese hamster; conditions: treatment for 24 hours
# Protocol: For the assay, 50 μL of CHO-7W cells were added to each well at 4×10^5 cells/mL. Then, 50 μL of inhibitor, prepared for tested concentrations, were added to appropriated wells and incubated for 24 hours at 37° C. Afterwards, media from each well is collected and assayed using an AlphaLISA assay for respective analytes.
# [5] = tested on: p-selectin glycoprotein ligand 1 (PSGL-1) (Homo sapiens (Human)); experiment: PSGL1 cleavage assay in PSGL1-BACE1 co-transfected 293T cells; assay type: cell-based
# Protocol: (§1) 293T cells were plated in 96-well plates at 40,000 cells/well, incubated overnight at 37° C. and 5% CO2. Next day, cells were co-transfected with NRG1-BACE1 plasmids or PSGL1-BACE1 plasmids using Lipofectamine2000, as describe previously. Six hours after transfection, the reagents were removed and media containing the different compounds at various concentrations were loaded into each well.
# (§2) After overnight incubation with the compounds, 20 μL of media were removed and added to a new plate. Then, 200 μl of reaction solution (0.1 M glycine, pH 10.4, 1 mM MgCl2, 1 mM ZnCl2 containing 1 mg/ml 4-nitrophenyl phosphate disodium salt hexahydrate, Sigma S0942) were loaded into each well of the plate. The absorbance was read at 405 nm for 60 min in 30 min intervals in a SpectraMax M5.
# (§3) These compounds were diluted to 10 mM in DMSO. This solution was diluted to 20, 10, 2, 1, 0.2 and 0.02 μM in DMEM high Glucose containing 10% of FBS and 1% of Penicillin-Streptomycin containing 0.2% DMSO.
# [6] = tested on: neuregulin 1 (NRG-1) (Homo sapiens (Human)); experiment: NRG1 cleavage assay in NRG1-BACE1 co-transfected 293T cells; assay type: cell-based
# Protocol: as §1, §2, §3
# [7] = tested on: BACE cleavage of APP; experiment: pharmacodynamic pilot study in rats (CSF and brain tissue); assay type: in vivo, Sprague-Dawley rats; conditions: 30 mg/kg orally
# [8] = tested on: BACE cleavage of APP; experiment: pilot study in AD model mice; assay type: in vivo; conditions: orally 30 mg/kg/day for 10 days
# [9] = molecular target: BACE-1 (Homo sapiens (Human), UniProt P56817); experiment: cell-free BACE enzyme assay with P5-P5′ substrate; assay type: biochemical
# Protocol: For the assay, 4 μL of assay buffer was added to each well, followed by 2 μL of BACE-1 diluted in assay buffer to 7.5 ng/μL. Then, 2 μL of inhibitor, at concentrations along an 11 pt. two-fold dilution series starting at 0.5 μM, were added to appropriate wells and incubated for 30 minutes at room temperature. Afterwards, 2 μL of P5-P5′ BACE-1 substrate, diluted to 50 μM in assay buffer, were added to each well, after which the signal generated was read every 30 minutes at 25° C. for 2 hr.
# [10] = pharmacokinetics in mice; assay type: in vivo
# Sequence of BACE-1 (P56817 46-501): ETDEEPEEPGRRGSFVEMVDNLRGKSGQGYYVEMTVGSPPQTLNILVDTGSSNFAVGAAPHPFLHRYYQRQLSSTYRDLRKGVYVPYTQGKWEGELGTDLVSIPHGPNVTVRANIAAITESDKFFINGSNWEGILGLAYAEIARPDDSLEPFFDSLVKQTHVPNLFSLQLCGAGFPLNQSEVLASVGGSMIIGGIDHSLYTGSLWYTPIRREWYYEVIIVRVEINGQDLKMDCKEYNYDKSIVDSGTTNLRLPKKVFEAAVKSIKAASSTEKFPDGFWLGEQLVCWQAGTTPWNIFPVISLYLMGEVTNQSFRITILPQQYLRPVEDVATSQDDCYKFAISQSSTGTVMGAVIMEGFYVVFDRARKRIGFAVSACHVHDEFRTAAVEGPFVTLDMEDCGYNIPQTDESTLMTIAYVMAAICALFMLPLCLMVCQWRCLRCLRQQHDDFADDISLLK
# Sequence of Cathepsin D (CatD) (P07339 65-412, species assumed): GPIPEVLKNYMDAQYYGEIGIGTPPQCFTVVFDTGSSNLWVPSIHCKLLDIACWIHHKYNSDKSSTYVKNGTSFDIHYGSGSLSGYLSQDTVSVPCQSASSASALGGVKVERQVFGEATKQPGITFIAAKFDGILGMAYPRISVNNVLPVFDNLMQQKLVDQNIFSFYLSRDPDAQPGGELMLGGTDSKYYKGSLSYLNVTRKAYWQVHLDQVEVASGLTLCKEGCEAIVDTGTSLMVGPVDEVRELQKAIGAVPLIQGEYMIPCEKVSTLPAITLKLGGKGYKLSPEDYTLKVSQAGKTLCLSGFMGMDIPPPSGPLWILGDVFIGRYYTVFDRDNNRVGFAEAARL
structure (smiles),measurement,setting,value
"Cc1cc(C2(c3cccc(-c4cncnc4)c3)N=C(N)N(C)C2=O)ccc1OC(F)F (racemic) [FAH-65, 2-amino-5-(4-(difluoromethoxy)-3-methylphenyl)-3-methyl-5-(3-(pyrimidin-5-yl)phenyl)-3,5-dihydro-4H-imidazol-4-one]",brain peak,[1],182 ng/g
same,PAMPA,[2],0.44 and 0.45 and 0.46 and 0.47 and 0.52 and 0.48 and 0.49
same,IC50,[3],47.1 µM
same,amyloid-beta (Aβ),[4],significantly decreased
same,soluble amyloid precursor protein beta (sAPPβ),[4],significantly decreased
same,inhibitory activity in cleavage of p-selectin glycoprotein ligand 1 (PSGL-1),[5],little cleavage
same,inhibitory activity in cleavage of neuregulin 1 (NRG-1),[6],little cleavage
same,sAPPβ in CSF,"[7]; at 3 and 6 hours, vs untreated controls",reduced
same,Aβ1-40 levels,"[7]; compared to control, decrease persisted to 24 hours",decreased
same,BACE/γ-secretase product Aβ,[8],trend to decrease
same,decrease of APP-derived BACE cleavage product βCTF (beta C-terminal fragment),[8],significantly
same,IC50,[9]; cell-free BACE assay,22 nM
same,IC50,"[9]; cell-free, several replicate values per cell, some flagged 's' (flag not defined), read-out: BACE1 IC50",5 to 10 nM and 19 nM and 11.2 nM and 16 nM and 11 nM and 15 nM and 24 nM and 14 nM
same,brain penetrance,[10],brain-penetrant
same,peak in brain,"[10]; oral delivery at 30 mg/kg, one hour post-dosing",74 ng/g
